From US11319296B2, “DP antagonist” (ONO PHARMACEUTICAL CO., LTD., priority 2018, dated 2022)

Assays:
Human DP receptor = target: T1, Human DP receptor (Homo sapiens, UniProt Q13258); test: Measurement of DP receptor antagonistic activity using human DP receptor expressing cells (cAMP-HTRF); type: cell-based; details: inhibition of cAMP production increased by 10 nmol/L prostaglandin D2
T1 construct: expressed in transfected cells
T1 sequence (Q13258 1-359): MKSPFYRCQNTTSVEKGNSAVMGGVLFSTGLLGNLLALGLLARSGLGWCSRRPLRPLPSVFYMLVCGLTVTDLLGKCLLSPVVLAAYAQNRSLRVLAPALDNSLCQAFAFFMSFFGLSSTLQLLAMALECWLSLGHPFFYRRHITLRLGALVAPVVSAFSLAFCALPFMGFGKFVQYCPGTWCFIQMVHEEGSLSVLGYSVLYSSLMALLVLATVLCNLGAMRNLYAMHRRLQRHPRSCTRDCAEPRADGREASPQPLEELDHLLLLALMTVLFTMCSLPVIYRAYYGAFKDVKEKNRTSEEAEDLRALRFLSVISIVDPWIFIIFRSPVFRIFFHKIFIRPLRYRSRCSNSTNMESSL
Protocol: Biological Example 1: Measurement of DP Receptor Antagonistic Activity Using Human DP Receptor Expressing Cells
cAMP-HTRF kit (SCETI MEDICAL LABO K.K., 62AM6PEJ) was used to measure DP receptor antagonistic activity. To a 384 well plate was added 10 μL/well of the compound of the present invention prepared at various concentrations and prostaglandin D2 (final concentration 10 nmol/L). Human DP receptor-expressing cells were suspended in phosphate buffer containing 2 μmoL/L diclofenac and 1 mmol/L IBMX (3-isobutyl-1-methylxantine) and seeded to 5000 cells/10 μL/well. After cell seeding, the cells were incubated at room temperature for 1 hour. Thereafter, anti-cAMP Cryptate conjugate and a cAMP-d2 solution were added according to a method of the measurement kit, and the mixture was incubated at room temperature for 1 hour, then the cAMP concentration in the sample was quantified.
Intensity of DP receptor antagonistic action by the compound of the present invention was represented by IC50 value (concentration of the compound of the present invention required to inhibit 50% of cAMP production in the absence of the compound of the present invention) calculated from an inhibition ratio to the cAMP production increased by 10 nmol/L prostaglandin D2 stimulation.

[1] = Measurement of concentration of compound in cerebrospinal fluid (CSF) after oral administration; type: in vivo; details: rat, 3 mg/kg, male Wistar rats, oral 3 mg/5 mL/kg, five test substances mixed, CSF collected 3 hours after administration
Protocol: Pharmacokinetic Test 1: Measurement of Concentration of Compound of Present Invention in Cerebrospinal Fluid (Hereinbelow, CSF)
Five test substances were mixed, and a test substance solution was prepared so that the dose of each test substance was 3 mg/5 mL/kg. The medium used was 5% DMSO 20% kolliphor HS15/propylene glycol (7:3). The test substance solution was orally administered to male 8- to 10-week-old Wistar rats purchased from Charles River Japan. Three hours after administration, the rats were anesthetized and CSF was collected by cisternal puncture. The same amount of ethanol (wako) as CSF was taken with a syringe used for collection, and the compound adsorbed on the syringe was recovered by washing.
Candesartan (TRC) was used as an internal standard substance, 40 μL of acetonitrile and 160 μL of Candesartan-containing acetonitrile/ethanol (7:3) were added to 10 μL of the obtained CSF sample, and the mixture was stirred. To prepare a calibration curve, 40 μL of the compound solution and 160 μL of Candesartan-containing acetonitrile/ethanol (7:3) were added to 10 μL of plasma, and the mixture was stirred. The entire amount of each solution was transferred to a deproteinization filter plate and suction filtered. The obtained filtrate was appropriately diluted with acetonitrile/water (1:1) and used for measurement. In the measurement, standard samples for calibration curve were prepared in the same matrix and analyzed in the same manner. The measurement was performed under the following conditions.
Liquid Chromatography System: Prominence UFLCXR (Shimadzu Corporation),
Column: Shim-pack XR-ODSII 2.0 mm ID×75 mm (Shimadzu Corporation),
Column temperature: 40° C.,
Mobile phase: A: 0.2% formic acid 5 mmol/L ammonium acetate aqueous solution, B: acetonitrile,
Mass spectrometry system: API4000, API5000 (AB SCIEX)
A regression equation was calculated from the peak area ratio (peak area of the test substance/peak area of the internal standard substance) obtained by measuring the standard samples for calibration curve using analysis software Analyst ver. 1.5.2 (AB SCIEX). The peak area ratio was also obtained for a measurement sample and substituted into the regression equation to calculate a quantitative value. In calculation of mean value and standard deviation, points below the lower limit of quantification were calculated as 0.

normal rat = test: Effect of prolonging normal rat awakening time (electroencephalogram/electromyogram); type: in vivo; details: rats, single oral dose of 3 mg/kg
Protocol: Biological Example 2: Effect of Prolonging Normal Rat Awakening Time
Chronic electrodes were placed in the brain and cervical muscles of rats to prepare rats in which electroencephalogram and electromyogram can be measured. After a recovery period of one week or more, the rat and a biological signal amplifier were connected in a shield box that blocked sound and electrical noise. After acclimatization in a measurement cage for 1 hour or more, various doses of the compound of the present invention were orally administered to rats in a single dose, and electroencephalogram and electromyogram were recorded 6 hours after the oral administration. After the measurement was completed, the rats were returned to a breeding cage each time, and a vehicle and each compound were evaluated with a washout period of one week or more.
The recorded electroencephalogram and electromyogram were analyzed using SleepSign Ver. 3 and divided into epochs every 10 seconds, and the stage was determined for any of awakening, non-REM sleep or REM sleep, with reference to characteristics of the electroencephalogram and electromyogram and spectral analysis results of each frequency component of the brain wave. […]

Row | Compound | IC50 (Human DP receptor) [nM] | concentration at 3 h [1] [ng/mL] | awakening time-prolonging effect (difference in total awakening time of 6 hours after administration vs vehicle-administered group) (normal rat) [min]
1 | Cc1cc(/C=C/CC2CCCCC2)cc(C)c1C(=O)Nc1cc(CC(=O)O)ccc1Cl [Example 8, (4-Chloro-3-{4-[(1E)-3-cyclohexylprop-1-en-1-yl]-2,6-dimethylbenzamide}phenyl)acetic Acid] | 3.7 | 28 | 48
2 | Cc1cc(OCCC2CCCCO2)cc(C)c1C(=S)Nc1cc(C(C)C(=O)O)ccc1Cl (stereo in doubt) [Example 21, 2-(4-Chloro-3-{[(2,6-dimethyl-4-{2-[(2R)-tetrahydro-2H-pyran-2-yl]ethoxy}phenyl)carbothioyl]amino}phenyl)propanoic Acid] | 7.8 | 66 | 
3 | Cc1cc(OCCC2CCCCO2)cc(C)c1C(=O)Nc1cc(CC(=O)O)ccc1Cl (stereo not drawn) [Example 4, (4-Chloro-3-{2,6-dimethyl-4-[2-(oxan-2-yl)ethoxy]benzamide}phenyl)acetic Acid] | 58 |  | 
4 | Cc1cc(OCCC2CCCCO2)cc(C)c1C(=S)Nc1cc(C(C)(C)C(=O)O)ccc1F (stereo not drawn) [Example 20, 2-{3-[({2,6-Dimethyl-4-[2-(tetrahydro-2H-pyran-2-yl)ethoxy]phenyl}carbothioyl)amino]-4-fluorophenyl}-2-methylpropanoic Acid] | 35 | 52 | 
5 | Cc1cc(C#CCC2CCCCC2)cc(C)c1C(=O)Nc1cc(CC(=O)O)ccc1Cl [Example 7, {4-Chloro-3-[4-(3-cyclohexylprop-1-yn-1-yl)-2,6-dimethylbenzamide]phenyl}acetic Acid] | 16 | 45 | 
6 | Cc1cc(OC2Cc3ccccc3C2)cc(C)c1C(=O)Nc1cc(CC(=O)O)ccc1F [Example 5, (3-{4-[(2,3-Dihydro-1H-inden-2-yl)oxy]-2,6-dimethylbenzamide}-4-fluorophenyl)acetic Acid] | 10 |  | 
7 | Cc1cc(OCC[C@H]2CCCCO2)cc(C)c1C(=S)Nc1cc(CC(=O)O)ccc1Cl [Example 12, {4-Chloro-3-[(2,6-dimethyl-4-{2-[(2R)-oxan-2-yl]ethoxy}benzene-1-carbothioyl]amino}phenyl}acetic Acid] | 4.8 | 48 | 60
8 | Cc1cc(OCCC2CCCCO2)cc(C)c1C(=S)Nc1cc(CC(=O)O)ccc1Cl (stereo not drawn) [Example 10, [4-Chloro-3-({2,6-dimethyl-4-[2-(oxan-2-yl)ethoxy]benzene-1-carbothioyl}amino)phenyl]acetic Acid] | 9.6 | 43 | 

Second part, led by results:

Row | IC50 (Human DP receptor) [nM] | concentration at 3 h [1] [ng/mL] | Compound | awakening time-prolonging effect (difference in total awakening time of 6 hours after administration vs vehicle-administered group) (normal rat) [min]
9 |  | 55 | O=C(O)Cc1ccc(Cl)c(NC(=S)c2ccc(OCCC3CCCCO3)cc2C(F)(F)F)c1 (stereo not drawn) [Example 10-2, [4-Chloro-3-({4-[2-(oxan-2-yl)ethoxy]-2-(trifluoromethyl)benzene-1-carbothioyl}amino)phenyl]acetic Acid] | 
10 | 1.7 | 36 | Cc1cc(OCCC2CCCCC2)cc(C)c1C(=S)Nc1cc(CC(=O)O)ccc1Cl [Example 10-1, (4-Chloro-3-{[4-(2-cyclohexylethoxy)-2,6-dimethylbenzene-1-carbothioyl]amino}phenyl)acetic Acid] | 
11 | 11 | 29 | Cc1cc(OCCC2CCCCC2)cc(C)c1C(=O)Nc1cc(CC(=O)O)ccc1Cl [Example 4-1, {4-Chloro-3-[4-(2-cyclohexylethoxy)-2,6-dimethylbenzamide]phenyl}acetic Acid] | 
12 | 5.1 | 34 | O=C(O)Cc1ccc(Cl)c(NC(=S)c2ccc(OCCc3ccccc3)cc2C(F)(F)F)c1 [Example 10-4, (4-Chloro-3-{[4-(2-phenylethoxy)-2-(trifluoromethyl)benzene-1-carbothioyl]amino}phenyl)acetic Acid] | 
13 | 34 |  | O=C(O)Cc1ccc(Cl)c(NC(=O)c2ccc(OCCC3CCCCC3)cc2C(F)(F)F)c1 [Example 2-1, {4-Chloro-3-[4-(2-cyclohexylethoxy)-2-(trifluoromethyl)benzamide]phenyl}acetic Acid] | 
